Earlier results in patent publication US4296101A, “Antibiotic kristenin” (E. R. Squibb & Sons, Inc., priority 1978, dated 1981).

Tested on: gram positive bacteria
Details: stated by Okazaki et al., Journal of Antibiotics, Vol. 28, No. 9, pages 717-719

CCC(N)C(O)C(O)C(C)C(=O)NC(CC(C)C)C1Cc2cccc(O)c2C(=O)O1 (stereo not shown) [baciphelacin]
active against gram positive bacteria: active against gram positive bacteria
